# In ChEMBL document CHEMBL1147701, “Novel 4-anilinoquinazolines with C-6 carbon-linked side chains: synthesis and structure-activity relationship of a series of potent, orally active, EGF receptor tyrosine kinase inhibitors” (Bioorg Med Chem Lett, 2006):
# Legend:
# [1] = Inhibition of CDK
# [2] = molecular target: AMP-activated protein kinase, AMPK; assay: Inhibition of AMPK; format: protein-complex assay
# [3] = molecular target: cAMP-dependent protein kinase (PKA) (Homo sapiens, UniProt P22694+P17612+P22612); assay: Inhibition of PKA; format: protein assay
# [4] = molecular target: Mitogen-activated protein kinase 1 (Homo sapiens, UniProt P28482); assay: Inhibition of MAPK
# [5] = Bioavailability in rat at 5 mg/kg, po and 2 mg/kg, iv; format: ADME, organism-based; settings: in vivo
# [6] = molecular target: MAP kinase p38 (Homo sapiens, UniProt O15264+Q15759+Q16539+P53778)
# [7] = Half life in dog at 2 mg/kg, po and 1 mg/kg, iv; format: ADME, organism-based, Canis lupus familiaris; settings: in vivo
# [8] = molecular target: T1, Serine/threonine-protein kinase Chk1 (Homo sapiens, UniProt O14757); assay: Inhibition of CHK1
# T1 sequence (O14757 whole entry): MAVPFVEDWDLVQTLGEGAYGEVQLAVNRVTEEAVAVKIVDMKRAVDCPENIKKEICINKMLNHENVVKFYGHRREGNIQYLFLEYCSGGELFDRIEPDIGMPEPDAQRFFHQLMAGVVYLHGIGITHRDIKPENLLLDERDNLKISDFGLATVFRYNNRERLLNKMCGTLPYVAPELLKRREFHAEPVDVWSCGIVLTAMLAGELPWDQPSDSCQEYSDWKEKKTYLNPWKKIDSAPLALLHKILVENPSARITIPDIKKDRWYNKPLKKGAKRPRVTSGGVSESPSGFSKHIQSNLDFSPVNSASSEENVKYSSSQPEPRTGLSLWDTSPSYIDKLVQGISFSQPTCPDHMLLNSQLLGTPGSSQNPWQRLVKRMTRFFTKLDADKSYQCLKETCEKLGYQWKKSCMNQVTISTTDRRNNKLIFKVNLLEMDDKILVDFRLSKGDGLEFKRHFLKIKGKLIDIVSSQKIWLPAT
# [9] = Clearance in rat at 5 mg/kg, po and 2 mg/kg, iv; format: ADME, organism-based; settings: in vivo
# [10] = molecular target: T2, Serine/threonine-protein kinase Sgk1 (Homo sapiens, UniProt O00141); assay: Inhibition of SGK
# T2 sequence (O00141 whole entry): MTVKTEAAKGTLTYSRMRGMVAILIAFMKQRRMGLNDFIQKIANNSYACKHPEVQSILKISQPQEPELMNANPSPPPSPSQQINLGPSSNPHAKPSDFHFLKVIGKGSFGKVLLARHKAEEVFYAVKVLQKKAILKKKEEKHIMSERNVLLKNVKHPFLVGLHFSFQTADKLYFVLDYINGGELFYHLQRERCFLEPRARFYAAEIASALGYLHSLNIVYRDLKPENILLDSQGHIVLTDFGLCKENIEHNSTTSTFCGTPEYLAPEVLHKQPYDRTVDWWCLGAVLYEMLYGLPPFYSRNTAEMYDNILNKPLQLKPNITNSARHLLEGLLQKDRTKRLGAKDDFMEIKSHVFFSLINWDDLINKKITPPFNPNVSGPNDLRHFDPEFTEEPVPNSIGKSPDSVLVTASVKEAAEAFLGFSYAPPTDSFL
# [11] = Bioavailability in dog at 2 mg/kg, po and 1 mg/kg, iv; format: ADME, organism-based, Canis lupus familiaris; settings: in vivo
# [12] = molecular target: Vascular endothelial growth factor receptor 2 (Homo sapiens, UniProt P35968)
# [13] = Volume of distribution in rat at 5 mg/kg, po and 2 mg/kg, iv; format: ADME, organism-based; settings: in vivo, read-out: Vdss
# [14] = Percent of unbound drug in human plasma; format: ADME, organism-based
# [15] = Percent of unbound drug in rat plasma; format: ADME, organism-based
# [16] = Half life in rat at 5 mg/kg, po and 2 mg/kg, iv; format: ADME, organism-based; settings: in vivo
# [17] = molecular target: Tyrosine-protein kinase Lck (Homo sapiens, UniProt P06239)
# [18] = Clearance in dog at 2 mg/kg, po and 1 mg/kg, iv; format: ADME, organism-based, Canis lupus familiaris; settings: in vivo
# [19] = molecular target: Glycogen synthase kinase-3 beta (Homo sapiens, UniProt P49841); assay: Inhibition of GSK3-beta
# [20] = Volume of distribution in dog at 2 mg/kg, po and 1 mg/kg, iv; format: ADME, organism-based, Canis lupus familiaris; settings: in vivo, read-out: Vdss
# [21] = test system: LoVo; assay: Antitumor activity against human LoVo cell line xenografted in athymic mouse at 50 mg/kg/day after 13 days; format: functional; settings: 312 h
# [22] = Inhibition of P450; format: ADME
# [23] = molecular target: Proto-oncogene tyrosine-protein kinase Src (Homo sapiens, UniProt P12931); assay: Inhibition of Src
# [24] = molecular target: c-Jun N-terminal kinase, JNK (Homo sapiens, UniProt P45983+P53779+P45984); assay: Inhibition of JNK; format: protein assay
# [25] = molecular target: Rho-associated protein kinase 2 (Homo sapiens, UniProt O75116); assay: Inhibition of ROCK2
# [26] = Apparent permeability from apical to basolateral side of the Caco-2 cell; format: ADME, cell-based; settings: human, read-out: permeability
# [27] = Distribution coefficient, logD of the compound; format: physicochemical; settings: octanol/water
# [28] = Percent of unbound drug in dog plasma; format: ADME, organism-based, Canis lupus familiaris
# [29] = Solubility in phosphate buffer at pH 7.4; format: physicochemical
# Chain of Rho-associated protein kinase 2 (O75116 whole entry): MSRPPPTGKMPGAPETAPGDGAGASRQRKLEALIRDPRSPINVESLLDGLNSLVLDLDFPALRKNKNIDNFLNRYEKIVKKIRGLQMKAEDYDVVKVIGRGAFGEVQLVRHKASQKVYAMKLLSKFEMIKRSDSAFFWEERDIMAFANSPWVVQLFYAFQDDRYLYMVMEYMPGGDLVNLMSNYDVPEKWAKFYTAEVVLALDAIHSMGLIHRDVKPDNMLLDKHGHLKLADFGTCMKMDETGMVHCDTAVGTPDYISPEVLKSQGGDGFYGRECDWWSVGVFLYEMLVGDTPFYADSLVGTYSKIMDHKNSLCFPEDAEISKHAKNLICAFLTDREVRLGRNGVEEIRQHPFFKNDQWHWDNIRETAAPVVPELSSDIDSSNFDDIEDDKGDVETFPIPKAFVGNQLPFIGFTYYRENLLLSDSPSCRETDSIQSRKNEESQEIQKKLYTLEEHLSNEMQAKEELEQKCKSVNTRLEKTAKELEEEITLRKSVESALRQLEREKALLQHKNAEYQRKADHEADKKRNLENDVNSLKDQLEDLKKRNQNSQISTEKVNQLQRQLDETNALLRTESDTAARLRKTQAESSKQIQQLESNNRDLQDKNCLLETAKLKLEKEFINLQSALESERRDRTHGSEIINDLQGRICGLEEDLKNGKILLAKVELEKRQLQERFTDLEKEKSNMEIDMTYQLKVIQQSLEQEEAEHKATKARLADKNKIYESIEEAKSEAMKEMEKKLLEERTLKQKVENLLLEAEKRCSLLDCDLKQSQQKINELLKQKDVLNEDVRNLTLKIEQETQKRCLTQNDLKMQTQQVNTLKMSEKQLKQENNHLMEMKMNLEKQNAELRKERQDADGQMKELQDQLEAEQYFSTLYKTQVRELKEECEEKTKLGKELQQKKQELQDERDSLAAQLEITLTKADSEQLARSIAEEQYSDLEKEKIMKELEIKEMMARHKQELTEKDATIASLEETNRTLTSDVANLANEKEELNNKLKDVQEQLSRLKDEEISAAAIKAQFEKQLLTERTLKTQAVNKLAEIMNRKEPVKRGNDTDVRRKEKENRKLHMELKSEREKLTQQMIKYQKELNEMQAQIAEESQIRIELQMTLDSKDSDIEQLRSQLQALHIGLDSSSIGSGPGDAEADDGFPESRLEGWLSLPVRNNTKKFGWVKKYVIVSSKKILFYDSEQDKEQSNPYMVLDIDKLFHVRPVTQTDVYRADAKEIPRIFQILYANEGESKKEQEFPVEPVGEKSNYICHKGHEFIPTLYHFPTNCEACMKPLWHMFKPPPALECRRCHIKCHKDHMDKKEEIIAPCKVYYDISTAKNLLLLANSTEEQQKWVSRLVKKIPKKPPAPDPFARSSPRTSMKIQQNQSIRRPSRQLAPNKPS
# Chain of Tyrosine-protein kinase Lck (P06239 whole entry): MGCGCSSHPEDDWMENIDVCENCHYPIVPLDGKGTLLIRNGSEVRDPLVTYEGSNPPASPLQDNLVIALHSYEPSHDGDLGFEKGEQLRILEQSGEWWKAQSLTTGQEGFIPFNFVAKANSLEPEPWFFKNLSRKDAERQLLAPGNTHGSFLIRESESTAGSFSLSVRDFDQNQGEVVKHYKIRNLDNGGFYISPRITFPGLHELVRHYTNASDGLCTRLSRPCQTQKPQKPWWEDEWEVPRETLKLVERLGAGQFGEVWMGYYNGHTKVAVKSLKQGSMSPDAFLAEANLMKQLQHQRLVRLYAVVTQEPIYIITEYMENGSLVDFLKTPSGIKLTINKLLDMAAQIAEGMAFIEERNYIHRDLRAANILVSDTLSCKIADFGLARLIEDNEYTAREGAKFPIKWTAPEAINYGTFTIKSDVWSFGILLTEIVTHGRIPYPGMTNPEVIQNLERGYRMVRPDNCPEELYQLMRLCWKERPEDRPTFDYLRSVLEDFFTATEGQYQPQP
# Chain of Vascular endothelial growth factor receptor 2 (P35968 whole entry): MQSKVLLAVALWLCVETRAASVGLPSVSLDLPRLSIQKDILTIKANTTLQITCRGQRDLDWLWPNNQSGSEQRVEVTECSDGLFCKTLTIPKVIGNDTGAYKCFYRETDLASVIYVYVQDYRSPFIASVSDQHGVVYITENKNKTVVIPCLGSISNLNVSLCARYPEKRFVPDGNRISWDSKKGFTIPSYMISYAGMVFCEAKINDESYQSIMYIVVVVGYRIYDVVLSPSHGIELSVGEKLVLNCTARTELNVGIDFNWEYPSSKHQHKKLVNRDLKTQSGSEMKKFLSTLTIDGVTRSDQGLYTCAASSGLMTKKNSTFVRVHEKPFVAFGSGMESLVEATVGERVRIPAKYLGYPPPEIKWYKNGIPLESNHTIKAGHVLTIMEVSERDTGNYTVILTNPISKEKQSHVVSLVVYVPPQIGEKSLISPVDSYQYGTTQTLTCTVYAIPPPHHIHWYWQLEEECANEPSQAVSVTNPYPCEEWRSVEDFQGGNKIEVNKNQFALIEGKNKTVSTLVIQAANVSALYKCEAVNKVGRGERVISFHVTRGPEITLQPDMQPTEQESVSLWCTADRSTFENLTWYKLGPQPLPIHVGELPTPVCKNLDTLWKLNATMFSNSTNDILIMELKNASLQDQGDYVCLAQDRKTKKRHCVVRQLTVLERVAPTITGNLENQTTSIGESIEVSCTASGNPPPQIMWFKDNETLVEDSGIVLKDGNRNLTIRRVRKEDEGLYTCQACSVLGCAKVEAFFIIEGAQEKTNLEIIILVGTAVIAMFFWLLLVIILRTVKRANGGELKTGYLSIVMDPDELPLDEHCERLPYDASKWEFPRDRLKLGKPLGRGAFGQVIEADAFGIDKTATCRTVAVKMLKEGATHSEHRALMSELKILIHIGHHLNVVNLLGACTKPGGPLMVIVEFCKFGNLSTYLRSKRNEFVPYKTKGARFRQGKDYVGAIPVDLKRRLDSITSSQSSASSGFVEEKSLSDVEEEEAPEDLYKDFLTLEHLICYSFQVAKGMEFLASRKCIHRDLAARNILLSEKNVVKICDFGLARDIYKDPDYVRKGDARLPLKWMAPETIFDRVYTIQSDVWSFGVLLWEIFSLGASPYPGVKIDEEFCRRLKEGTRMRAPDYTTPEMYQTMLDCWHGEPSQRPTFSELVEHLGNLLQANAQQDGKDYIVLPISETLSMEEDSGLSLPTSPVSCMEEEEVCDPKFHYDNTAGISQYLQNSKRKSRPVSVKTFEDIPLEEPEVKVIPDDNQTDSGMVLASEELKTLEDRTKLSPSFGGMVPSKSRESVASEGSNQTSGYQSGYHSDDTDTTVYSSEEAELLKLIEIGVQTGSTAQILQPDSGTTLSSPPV
# Chain of Glycogen synthase kinase-3 beta (P49841 whole entry): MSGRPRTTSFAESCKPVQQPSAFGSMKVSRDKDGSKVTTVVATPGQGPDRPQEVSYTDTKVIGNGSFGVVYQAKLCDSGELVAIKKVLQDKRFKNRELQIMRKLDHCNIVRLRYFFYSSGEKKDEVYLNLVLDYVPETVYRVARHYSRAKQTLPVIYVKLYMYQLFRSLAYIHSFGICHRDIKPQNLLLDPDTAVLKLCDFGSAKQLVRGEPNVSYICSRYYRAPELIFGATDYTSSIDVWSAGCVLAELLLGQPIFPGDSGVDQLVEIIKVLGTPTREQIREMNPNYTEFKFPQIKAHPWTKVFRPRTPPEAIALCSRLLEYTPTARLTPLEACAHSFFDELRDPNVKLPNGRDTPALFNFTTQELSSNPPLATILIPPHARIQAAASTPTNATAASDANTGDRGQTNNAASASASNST
# Chain of Proto-oncogene tyrosine-protein kinase Src (P12931 2-536 limits assumed): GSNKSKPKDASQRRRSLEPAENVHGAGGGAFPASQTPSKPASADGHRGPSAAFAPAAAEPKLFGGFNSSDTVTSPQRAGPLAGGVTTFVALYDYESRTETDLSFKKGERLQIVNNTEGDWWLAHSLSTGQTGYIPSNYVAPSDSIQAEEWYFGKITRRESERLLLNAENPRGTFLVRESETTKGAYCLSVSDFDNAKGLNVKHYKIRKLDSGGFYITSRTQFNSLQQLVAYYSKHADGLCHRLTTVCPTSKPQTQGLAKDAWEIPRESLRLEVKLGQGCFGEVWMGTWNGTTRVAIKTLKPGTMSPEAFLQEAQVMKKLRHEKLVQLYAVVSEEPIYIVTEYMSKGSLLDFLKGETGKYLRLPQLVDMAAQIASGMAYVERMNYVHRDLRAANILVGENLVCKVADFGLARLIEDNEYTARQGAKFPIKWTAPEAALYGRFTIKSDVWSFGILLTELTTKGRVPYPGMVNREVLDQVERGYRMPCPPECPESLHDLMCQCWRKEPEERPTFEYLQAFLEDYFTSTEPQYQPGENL
# Chain of Mitogen-activated protein kinase 1 (P28482 whole entry): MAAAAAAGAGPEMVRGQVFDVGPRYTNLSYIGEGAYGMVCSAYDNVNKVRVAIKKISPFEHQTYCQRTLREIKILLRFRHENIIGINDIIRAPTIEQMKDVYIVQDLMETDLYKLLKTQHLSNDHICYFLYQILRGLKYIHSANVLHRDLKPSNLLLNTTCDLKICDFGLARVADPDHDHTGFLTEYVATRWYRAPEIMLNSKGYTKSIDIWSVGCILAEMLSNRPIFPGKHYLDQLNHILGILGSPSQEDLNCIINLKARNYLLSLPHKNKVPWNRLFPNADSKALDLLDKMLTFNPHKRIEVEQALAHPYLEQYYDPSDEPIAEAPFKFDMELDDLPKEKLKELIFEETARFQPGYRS
smiles,measurement,setting,value
COc1cc2ncnc(Nc3cccc(Cl)c3F)c2cc1CN(C)[C@@H](C)C(N)=O,IC50,[1],> 10 µM
same,IC50,[2],> 10 µM
same,IC50,[3],> 10 µM
same,IC50,[4],> 10 µM
same,bioavailability,[5],75%
same,IC50,[6],> 10 µM
same,half-life,[7],0.4 h
same,IC50,[8],> 10 µM
same,clearance,[9],12 mL/min/kg
same,IC50,[10],> 10 µM
same,bioavailability,[11],63%
same,IC50,[12],> 10 µM
same,Vd,[13],0.8 L/kg
same,fraction unbound,[14],0.05
same,fraction unbound,[15],0.065
same,half-life,[16],4.8 h
same,IC50,[17],> 10 µM
same,clearance,[18],14 mL/min/kg
same,IC50,[19],> 10 µM
same,Vd,[20],0.4 L/kg
same,inhibition in vivo at 50 mg/kg/day,[21],60%
same,IC50,[22],> 10 µM
same,IC50,[23],> 10 µM
same,IC50,[24],> 10 µM
same,IC50,[25],> 10 µM
same,Papp A→B,[26],> 13 ×10⁻⁶ cm/s
same,logD,[27],3.4
same,fraction unbound,[28],0.01
same,solubility,[29],40 µM
